Results taken from article PMC4980083 (JCI insight, 2016).

Experiments:
PR LBD = biological target: T1, PR LBD (Homo sapiens, UniProt P06401); assay: Fluorescence polarization competition binding, PR LBD
T1 sequence (P06401 679-913 limits assumed): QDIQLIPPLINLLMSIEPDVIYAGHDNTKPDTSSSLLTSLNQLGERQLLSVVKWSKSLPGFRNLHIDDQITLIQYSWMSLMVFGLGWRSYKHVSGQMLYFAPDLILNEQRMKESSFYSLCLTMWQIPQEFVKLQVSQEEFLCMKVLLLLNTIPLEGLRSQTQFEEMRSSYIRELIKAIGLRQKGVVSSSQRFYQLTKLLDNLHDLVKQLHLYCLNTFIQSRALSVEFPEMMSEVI

[1] = biological target: T2, full-length AR and AR-V567es (Homo sapiens, UniProt P10275); assay: Probasin luciferase activity in LNCaP cells, full-length AR and AR-V567es; conditions: I-EPI-002 2 μM, enzalutamide 5 μM; presence or absence of androgen
T2 sequence (P10275 1-920): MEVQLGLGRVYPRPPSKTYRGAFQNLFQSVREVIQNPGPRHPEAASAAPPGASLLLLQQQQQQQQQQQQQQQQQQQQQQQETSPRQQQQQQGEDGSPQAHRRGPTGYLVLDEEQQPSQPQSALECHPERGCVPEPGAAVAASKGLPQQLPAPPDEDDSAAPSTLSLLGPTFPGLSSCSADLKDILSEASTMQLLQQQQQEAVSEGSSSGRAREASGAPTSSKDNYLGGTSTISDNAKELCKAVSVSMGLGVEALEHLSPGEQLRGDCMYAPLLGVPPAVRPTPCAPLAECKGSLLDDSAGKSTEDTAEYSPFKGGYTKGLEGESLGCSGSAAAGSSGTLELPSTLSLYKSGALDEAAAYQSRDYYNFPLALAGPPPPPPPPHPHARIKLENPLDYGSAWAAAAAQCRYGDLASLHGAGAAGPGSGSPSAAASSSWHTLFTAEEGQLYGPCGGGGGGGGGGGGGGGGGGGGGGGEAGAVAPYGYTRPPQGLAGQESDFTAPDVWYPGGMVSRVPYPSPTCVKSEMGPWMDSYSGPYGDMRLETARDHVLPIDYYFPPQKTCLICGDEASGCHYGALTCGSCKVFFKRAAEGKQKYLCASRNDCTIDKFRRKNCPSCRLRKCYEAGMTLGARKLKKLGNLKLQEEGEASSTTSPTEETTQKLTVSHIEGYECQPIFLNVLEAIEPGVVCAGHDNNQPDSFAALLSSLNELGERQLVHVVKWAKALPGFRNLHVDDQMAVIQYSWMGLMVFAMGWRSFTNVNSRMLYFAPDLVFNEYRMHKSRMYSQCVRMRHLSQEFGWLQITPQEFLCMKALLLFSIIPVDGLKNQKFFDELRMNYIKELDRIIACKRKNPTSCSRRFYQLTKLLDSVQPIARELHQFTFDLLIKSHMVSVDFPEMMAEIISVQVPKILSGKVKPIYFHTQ
T2 sequence (P10275 with tags, fused parts or gaps limits assumed): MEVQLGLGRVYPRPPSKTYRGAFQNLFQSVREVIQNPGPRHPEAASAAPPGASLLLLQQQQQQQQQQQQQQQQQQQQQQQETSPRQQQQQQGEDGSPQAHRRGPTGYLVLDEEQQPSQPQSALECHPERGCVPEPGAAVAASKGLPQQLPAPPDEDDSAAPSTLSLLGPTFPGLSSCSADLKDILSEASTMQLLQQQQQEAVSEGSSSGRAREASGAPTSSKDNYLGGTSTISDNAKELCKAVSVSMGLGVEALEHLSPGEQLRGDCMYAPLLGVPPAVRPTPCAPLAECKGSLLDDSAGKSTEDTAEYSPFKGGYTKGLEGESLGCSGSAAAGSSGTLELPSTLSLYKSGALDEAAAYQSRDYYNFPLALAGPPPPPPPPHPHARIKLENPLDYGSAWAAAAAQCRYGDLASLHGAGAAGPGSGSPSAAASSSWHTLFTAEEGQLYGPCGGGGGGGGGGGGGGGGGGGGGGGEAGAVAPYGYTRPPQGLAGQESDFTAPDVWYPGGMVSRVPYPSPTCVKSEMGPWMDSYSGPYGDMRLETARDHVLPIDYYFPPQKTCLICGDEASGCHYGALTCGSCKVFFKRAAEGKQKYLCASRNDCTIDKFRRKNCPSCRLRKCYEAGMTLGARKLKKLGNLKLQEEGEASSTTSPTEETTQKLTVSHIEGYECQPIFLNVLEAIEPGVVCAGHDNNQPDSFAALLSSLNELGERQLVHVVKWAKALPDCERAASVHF

PRβ = biological target: T3, PRβ (Homo sapiens, UniProt P06401); assay: PR transcriptional activity, PRE luciferase reporter; type: cell-based; conditions: 2 μM; progesterone 10 nM
T3 sequence (P06401 1-933): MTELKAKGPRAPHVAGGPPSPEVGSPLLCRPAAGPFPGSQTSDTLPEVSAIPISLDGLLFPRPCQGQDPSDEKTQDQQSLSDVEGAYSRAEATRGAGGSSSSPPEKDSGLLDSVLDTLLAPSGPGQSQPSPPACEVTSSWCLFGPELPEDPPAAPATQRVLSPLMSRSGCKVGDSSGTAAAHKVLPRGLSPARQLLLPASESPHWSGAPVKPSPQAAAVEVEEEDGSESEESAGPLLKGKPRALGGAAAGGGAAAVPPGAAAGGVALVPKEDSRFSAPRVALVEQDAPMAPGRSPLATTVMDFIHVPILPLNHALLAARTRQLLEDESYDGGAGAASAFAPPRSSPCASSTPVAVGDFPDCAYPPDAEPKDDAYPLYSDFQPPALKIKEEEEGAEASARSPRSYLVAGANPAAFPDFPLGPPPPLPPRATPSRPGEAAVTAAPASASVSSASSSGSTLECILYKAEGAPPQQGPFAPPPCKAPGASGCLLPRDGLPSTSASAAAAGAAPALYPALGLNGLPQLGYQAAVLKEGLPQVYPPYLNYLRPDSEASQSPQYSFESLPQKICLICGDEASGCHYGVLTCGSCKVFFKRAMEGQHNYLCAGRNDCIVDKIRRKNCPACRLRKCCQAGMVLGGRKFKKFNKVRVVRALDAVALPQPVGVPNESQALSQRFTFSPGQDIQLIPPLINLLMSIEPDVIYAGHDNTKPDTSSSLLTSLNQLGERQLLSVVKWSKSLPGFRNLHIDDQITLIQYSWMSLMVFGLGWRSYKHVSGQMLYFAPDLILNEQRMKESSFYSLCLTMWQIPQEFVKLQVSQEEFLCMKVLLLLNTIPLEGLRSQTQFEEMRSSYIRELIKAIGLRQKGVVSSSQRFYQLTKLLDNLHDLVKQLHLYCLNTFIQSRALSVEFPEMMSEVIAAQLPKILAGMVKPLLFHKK

ER LBD = assay: Fluorescence polarization competition binding, ER LBD
PC3 cells = assay: PC3 proliferation/viability; type: cell-based, human; conditions: up to 10 times the IC50 required to reduce AR-dependent proliferation; 3 days

Which results are given for 15-IodoEPI002 [I-EPI-002]?
competition for ligand binding to PR LBD (PR LBD): did not prevent ligand-binding; inhibition of probasin luciferase activity, full-length AR with V567es [1]: showed good inhibition; inhibition of PR transcriptional activity (PRβ): did not inhibit; competition for ligand binding to ER LBD (ER LBD): did not prevent ligand-binding; effect on proliferation or viability of PC3 cells (PC3 cells): no effect
